This assay concerns the target GCN2 (Homo sapiens (Human), UniProt Q9P2K8). The assay is described as follows: GCN2 Biochemical Assay (TR-FRET, GFP-eIF2S1 substrate phosphorylation). The following applies: read-out: IC50 (GCN2 Inhibitory Activity). The essentials:
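In-house GCN2 (1.6 nM 2× stock) phosphorylates GFP-eIF2S1 (50 nM 2× stock) with ATP (0.2 mM 2× stock) and tRNA, pH 7.5, 70 min at room temperature; 10-point 3.16-fold compound series. TR-FRET detection with Tb-anti-phospho antibody, 2–3 h, Ex 340/Em 490/520 nm; artifact plate spiked with phospho-substrate.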

As usually defined, the IC50 is the concentration needed to halve the response being measured.

Chain of GCN2 (Q9P2K8 whole entry): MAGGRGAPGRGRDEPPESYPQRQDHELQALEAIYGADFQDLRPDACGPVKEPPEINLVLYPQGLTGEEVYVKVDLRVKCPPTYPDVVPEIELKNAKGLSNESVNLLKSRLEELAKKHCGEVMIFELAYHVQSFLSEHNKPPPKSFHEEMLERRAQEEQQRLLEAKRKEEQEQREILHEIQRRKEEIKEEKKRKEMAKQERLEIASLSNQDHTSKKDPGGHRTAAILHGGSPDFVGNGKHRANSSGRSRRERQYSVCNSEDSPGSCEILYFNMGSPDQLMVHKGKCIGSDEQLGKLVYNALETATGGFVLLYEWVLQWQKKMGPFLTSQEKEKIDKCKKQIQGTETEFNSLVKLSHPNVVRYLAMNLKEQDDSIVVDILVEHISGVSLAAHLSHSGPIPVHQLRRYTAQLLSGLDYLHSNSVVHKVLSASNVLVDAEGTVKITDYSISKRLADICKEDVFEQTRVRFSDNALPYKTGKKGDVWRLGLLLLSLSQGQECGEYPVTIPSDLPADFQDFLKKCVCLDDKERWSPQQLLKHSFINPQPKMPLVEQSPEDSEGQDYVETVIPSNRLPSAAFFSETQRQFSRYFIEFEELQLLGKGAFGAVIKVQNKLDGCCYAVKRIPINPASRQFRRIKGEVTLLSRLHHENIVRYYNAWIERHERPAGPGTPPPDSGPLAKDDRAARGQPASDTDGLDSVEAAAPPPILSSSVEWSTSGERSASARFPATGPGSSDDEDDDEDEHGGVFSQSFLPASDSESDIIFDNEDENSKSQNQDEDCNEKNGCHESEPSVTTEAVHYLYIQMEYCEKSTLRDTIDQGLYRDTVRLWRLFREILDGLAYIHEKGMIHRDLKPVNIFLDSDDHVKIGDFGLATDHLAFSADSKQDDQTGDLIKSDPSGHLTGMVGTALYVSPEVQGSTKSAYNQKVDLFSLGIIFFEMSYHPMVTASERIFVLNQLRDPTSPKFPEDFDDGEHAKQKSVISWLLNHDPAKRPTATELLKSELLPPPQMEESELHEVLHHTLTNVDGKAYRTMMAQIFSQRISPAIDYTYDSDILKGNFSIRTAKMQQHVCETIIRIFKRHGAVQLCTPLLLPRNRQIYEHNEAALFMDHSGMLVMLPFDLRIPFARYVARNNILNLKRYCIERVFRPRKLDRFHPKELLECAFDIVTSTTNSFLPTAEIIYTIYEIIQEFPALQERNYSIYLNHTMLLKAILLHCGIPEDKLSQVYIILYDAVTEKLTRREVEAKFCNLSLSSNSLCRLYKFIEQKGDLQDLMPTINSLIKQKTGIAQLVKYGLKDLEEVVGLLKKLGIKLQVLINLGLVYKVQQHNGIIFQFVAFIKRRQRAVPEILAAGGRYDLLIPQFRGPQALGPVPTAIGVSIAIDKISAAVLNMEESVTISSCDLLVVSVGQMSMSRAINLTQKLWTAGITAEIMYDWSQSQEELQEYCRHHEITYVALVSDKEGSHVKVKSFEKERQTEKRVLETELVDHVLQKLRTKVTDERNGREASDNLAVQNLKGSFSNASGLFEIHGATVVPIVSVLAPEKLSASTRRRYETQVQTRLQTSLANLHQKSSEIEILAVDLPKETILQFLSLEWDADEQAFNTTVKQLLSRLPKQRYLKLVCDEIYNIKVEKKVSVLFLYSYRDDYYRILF

In the case of `CC(=O)/C=C/c1cccc2c1CN(c1cccc3c(-c4nc(Nc5cc(C)n(C)n5)ncc4C)c[nH]c13)C2=O` [Example 362, (E)-2-(3-(2-((1,5-dimethyl-1H-pyrazol-3-yl)amino)-5-methylpyrimidin-4-yl)-1H-indol-7-yl)-4-(3-oxobut-1-en-1-yl)isoindolin-1-one], the IC50 was less than 10 nM.
Take `Cc1cnc(Nc2cc(C)n(C)n2)nc1-c1c[nH]c2c(NC(=O)CN3CC[C@H](Oc4ncnc(N)n4)C3)cccc12` [Example 134, (S)-2-(3-((4-amino-1,3,5-triazin-2-yl)oxy)pyrrolidin-1-yl)-N-(3-(2-((1,5-dimethyl-1H-pyrazol-3-yl)amino)-5-methylpyrimidin-4-yl)-1H-indol-7-yl)acetamide]: the 50% inhibitory concentration (IC50) is less than 10 nM.
Turning to `Cc1cnc(Nc2cc(C)n(C)n2)nc1-c1c[nH]c2c(NC(=O)CN3C[C@@H](Oc4ccnc(NC5CC5)n4)C[C@H]3C(N)=O)cccc12` [Example 58, (2S,4S)-4-((2-(cyclopropylamino)pyrimidin-4-yl)oxy)-1-(2-((3-(2-((1,5-dimethyl-1H-pyrazol-3-yl)amino)-5-methylpyrimidin-4-yl)-1H-indol-7-yl)amino)-2-oxoethyl)pyrrolidine-2-carboxamide], the IC50 is less than 10 nM.
Regarding `Cc1cnc(Nc2cc(C)n(C)n2)nc1-c1c[nH]c2c(N3Cc4cccc([N+](=O)[O-])c4C3=O)cccc12` [Example 274, 2-(3-(2-((1,5-dimethyl-1H-pyrazol-3-yl)amino)-5-methylpyrimidin-4-yl)-1H-indol-7-yl)-7-nitroisoindolin-1-one], the IC50 was less than 10 nM.
As for `Cc1cnc(Nc2cc(C)n(C)n2)nc1-c1c[nH]c2c(N3Cc4c(/C=C/C(=O)N(C)C)ccc(F)c4C3=O)cccc12` [Example 359, (E)-3-(2-(3-(2-((1,5-dimethyl-1H-pyrazol-3-yl)amino)-5-methylpyrimidin-4-yl)-1H-indol-7-yl)-7-fluoro-1-oxoisoindolin-4-yl)-N,N-dimethylacrylamide], the figure is 10 to 100 nM; as for `Cc1cnc(Nc2cc(C)n(C)n2)nc1-c1c[nH]c2c(NC(=O)CN3CC[C@H](Oc4nc(C(=O)NC5CC5)co4)C3)cccc12` [Example 127, (S)-N-cyclopropyl-2-((1-(2-((3-(2-((1,5-dimethyl-1H-pyrazol-3-yl)amino)-5-methylpyrimidin-4-yl)-1H-indol-7-yl)amino)-2-oxoethyl)pyrrolidin-3-yl)oxy)oxazole-4-carboxamide], 10 to 100 nM.
As for `Cc1cnc(Nc2cc(C)n(C)n2)nc1-c1c[nH]c2c(N3Cc4c(-c5ccncc5)ccc(F)c4C3=O)cccc12` [Example 480, 2-(3-(2-((1,5-dimethyl-1H-pyrazol-3-yl)amino)-5-methylpyrimidin-4-yl)-1H-indol-7-yl)-7-fluoro-4-(pyridin-4-yl)isoindolin-1-one], the figure is less than 10 nM; as for `CNc1cc(-c2cccc3c2CN(c2cccc4c(-c5nc(Nc6cc(C)n(C)n6)ncc5C)c[nH]c24)C3=O)ccn1` [Example 476, 2-(3-(2-((1,5-dimethyl-1H-pyrazol-3-yl)amino)-5-methylpyrimidin-4-yl)-1H-indol-7-yl)-4-(2-(methylamino)pyridin-4-yl)isoindolin-1-one], less than 10 nM.
As to `Cc1cnc(Nc2cc(C)n(C)n2)nc1-c1c[nH]c2c(NC(=O)CN3C[C@@H](F)[C@H](Oc4ccncc4)C3)cccc12` [Example 51, N-(3-(2-((1,5-dimethyl-1H-pyrazol-3-yl)amino)-5-methylpyrimidin-4-yl)-1H-indol-7-yl)-2-((3R,4R)-3-fluoro-4-(pyridin-4-yloxy)pyrrolidin-1-yl)acetamide], the IC50 lay within 10 to 100 nM.
As for `Cc1cnc(Nc2cc(C)n(C)n2)nc1-c1c[nH]c2c(N3Cc4c(I)cccc4C3=O)cccc12` [Example 278, 2-(3-(2-((1,5-dimethyl-1H-pyrazol-3-yl)amino)-5-methylpyrimidin-4-yl)-1H-indol-7-yl)-4-iodoisoindolin-1-one], the figure is less than 10 nM; as for `Cc1cnc(Nc2cc(C)n(C)n2)nc1-c1c[nH]c2c(N3Cc4c(cccc4C4=CCN(C)CC4)C3=O)cccc12` [Example 464, 2-(3-(2-((1,5-dimethyl-1H-pyrazol-3-yl)amino)-5-methylpyrimidin-4-yl)-1H-indol-7-yl)-4-(i-methyl-1,2,3,6-tetrahydropyridin-4-yl)isoindolin-1-one], less than 10 nM; as for `Cc1cnc(Nc2cc(C)n(C)n2)nc1-c1c[nH]c2c(NC(=O)CN3CC[C@H](Oc4ncc(F)c(N5CCN(C)CC5)n4)C3)cccc12` [Example 190, (S)-N-(3-(2-((1,5-dimethyl-1H-pyrazol-3-yl)amino)-5-methylpyrimidin-4-yl)-1H-indol-7-yl)-2-(3-((5-fluoro-4-(4-methylpiperazin-1-yl)pyrimidin-2-yl)oxy)pyrrolidin-1-yl)acetamide], less than 10 nM.
As for `Cc1cnc(Nc2cc(C)n(C)n2)nc1-c1c[nH]c2c(N3Cc4c(NC(=O)C5CCN(C)CC5)cccc4C3=O)cccc12` [Example 306, N-(2-(3-(2-((1,5-dimethyl-1H-pyrazol-3-yl)amino)-5-methylpyrimidin-4-yl)-1H-indol-7-yl)-1-oxoisoindolin-4-yl)-1-methylpiperidine-4-carboxamide], the figure is less than 10 nM; as for `Cc1cnc(Nc2cc(C)n(C)n2)nc1-c1c[nH]c2c(N3Cc4c(cccc4-c4cccnc4)C3=O)cccc12` [Example 388, 2-(3-(2-((1,5-dimethyl-1H-pyrazol-3-yl)amino)-5-methylpyrimidin-4-yl)-1H-indol-7-yl)-4-(pyridin-3-yl)isoindolin-1-one], less than 10 nM; as for `Cc1cnc(Nc2cc(C)n(C)n2)nc1-c1c[nH]c2c(N3Cc4c(cccc4C4=CCS(=O)(=O)CC4)C3=O)cccc12` [Example 468, 2-(3-(2-((1,5-dimethyl-1H-pyrazol-3-yl)amino)-5-methylpyrimidin-4-yl)-1H-indol-7-yl)-4-(1,1-dioxido-3,6-dihydro-2H-thiopyran-4-yl)isoindolin-1-one], less than 10 nM.
With `Cc1cnc(Nc2cc(C)n(C)n2)nc1-c1c[nH]c2c(N3Cc4c(NC(=O)C5CCCOC5)cccc4C3=O)cccc12` (stereo not shown) [Example 327, N-(2-(3-(2-((1,5-dimethyl-1H-pyrazol-3-yl)amino)-5-methylpyrimidin-4-yl)-1H-indol-7-yl)-1-oxoisoindolin-4-yl)tetrahydro-2H-pyran-3-carboxamide], the IC50 was less than 10 nM.
Regarding `Cc1cnc(Nc2cc(C)n(C)n2)nc1-c1c[nH]c2c(NC(=O)CN3CC[C@H](Oc4ccc(C(C)(C)c5ccccc5)cc4)C3)cccc12` [Example 101, (S)-N-(3-(2-((1,5-dimethyl-1H-pyrazol-3-yl)amino)-5-methylpyrimidin-4-yl)-1H-indol-7-yl)-2-(3-(4-(2-phenylpropan-2-yl)phenoxy)pyrrolidin-1-yl)acetamide], the IC50 is more than 1000 nM.
With `Cc1cnc(Nc2cc(C)n(C)n2)nc1-c1c[nH]c2c(N3Cc4c(NC(=O)c5cc(O)ncn5)cccc4C3=O)cccc12` [Example 339, N-(2-(3-(2-((1,5-dimethyl-1H-pyrazol-3-yl)amino)-5-methylpyrimidin-4-yl)-1H-indol-7-yl)-1-oxoisoindolin-4-yl)-6-hydroxypyrimidine-4-carboxamide], the IC50 was less than 10 nM.
Take `Cc1cnc(Nc2cc(C)n(C)n2)nc1-c1c[nH]c2c(N3Cc4c(/C=C/C(=O)NC5CC5)cccc4C3=O)cccc12` [Example 365, (E)-N-cyclopropyl-3-(2-(3-(2-((1,5-dimethyl-1H-pyrazol-3-yl)amino)-5-methylpyrimidin-4-yl)-1H-indol-7-yl)-1-oxoisoindolin-4-yl)acrylamide]: the IC50 is less than 10 nM.
For `Cc1cnccc1-c1nccc2c1CN(c1cccc3c(-c4nc(Nc5cc(C)n(C)n5)ncc4C)c[nH]c13)C2=O` [Example 506, 2-(3-(2-((1,5-dimethyl-1H-pyrazol-3-yl)amino)-5-methylpyrimidin-4-yl)-1H-indol-7-yl)-4-(3-methylpyridin-4-yl)-2,3-dihydro-1H-pyrrolo[3,4-c]pyridin-1-one], the IC50 is less than 10 nM.
Take `Cc1cnc(Nc2cc(C)n(C)n2)nc1-c1c[nH]c2c(NC(=O)CN3CC[C@H](Oc4cc(N)ncn4)C3)cccc12` [Example 140, (S)-2-(3-((6-aminopyrimidin-4-yl)oxy)pyrrolidin-1-yl)-N-(3-(2-((1,5-dimethyl-1H-pyrazol-3-yl)amino)-5-methylpyrimidin-4-yl)-1H-indol-7-yl)acetamide]: the IC50 was less than 10 nM.
Take `Cc1cnc(Nc2cc(C)n(C)n2)nc1-c1c[nH]c2c(N3Cc4c(cccc4-c4ccncc4CO)C3=O)cccc12` [Example 471]: the IC50 is less than 10 nM.
As for `Cc1cc(Nc2ncc(C3CC3)c(-c3c[nH]c4c(NC(=O)CN5CC[C@H](Oc6ccnc(NC7CC7)n6)C5)cccc34)n2)nn1C` [Example 12, (S)-N-(3-(5-cyclopropyl-2-((1,5-dimethyl-1H-pyrazol-3-yl)amino)pyrimidin-4-yl)-1H-indol-7-yl)-2-(3-((2-(cyclopropylamino)pyrimidin-4-yl)oxy)pyrrolidin-1-yl)acetamide], the figure is 10 to 100 nM.
As for `Cc1cnc(Nc2cc(C)n(C)n2)nc1-c1c[nH]c2c(N3Cc4c(cccc4C4=CCNCC4)C3=O)cccc12` [Example 394, 2-(3-(2-((1,5-dimethyl-1H-pyrazol-3-yl)amino)-5-methylpyrimidin-4-yl)-1H-indol-7-yl)-4-(1,2,3,6-tetrahydropyridin-4-yl)isoindolin-1-one], the figure is less than 10 nM; as for `Cc1cnc(Nc2cc(C)n(C)n2)nc1-c1c[nH]c2c(NC(=O)CN3CC[C@H](Oc4cncc(NCCO)n4)C3)cccc12` [Example 246, (S)-N-(3-(2-((1,5-dimethyl-1H-pyrazol-3-yl)amino)-5-methylpyrimidin-4-yl)-1H-indol-7-yl)-2-(3-((6-((2-hydroxyethyl)amino)pyrazin-2-yl)oxy)pyrrolidin-1-yl)acetamide], 10 to 100 nM.

These data come from patent US20240025884A1 (Dong-A ST Co., Ltd., priority 2022, published 2024).
